The source of these data is patent publication US12208080B2, “Compositions and methods for modulation of extracellular vesicle release and treatment of neurological disorders” (GEORGE MASON RESEARCH FOUNDATION, INC., priority 2018, dated 2025).

Molecules are shown by their SMILES.

The target in one test is T1, cdk9/Cyclin Ti (Homo sapiens, UniProt P50750).
T1 construct: Lysates were immunoprecipitated with 10 μg of cdk9 or IgG antibodies overnight at 4° C; endogenous in cells; host or cells: U1 cells treated with CBD or THC for 5 days, then lysed and immunoprecipitated with anti-cdk9
Put plainly: Kinase assay: cdk9 immunoprecipitate, phosphorylation of histone H1. The class given is biochemical. The settings on record: for phosphorylation of Histone H1: U1, CBD 1 μM, THC 1 μg/mL every day for 5 days, anti-cdk9 IP, FIG. 17 legend. The protocol:
U1 cells (5×10^6) were treated with CBD (1 μM) and THC (1 μg/mL) every day for 5 days. Cells were then lysed, centrifuged and the supernatants (˜150 ug) incubated with anti-cdk9 and IgG antibodies as described in the Kinase Assay section (Materials and Methods), ran on a 4-20% gel and dried, followed by imaging for phosphorylated Histone 1 (p-H1). p-H1 Densitometry counts were calculated on the kinase blot and normalized to background gel pieces.
U1 cells (5×10^6) were treated with CBD (1 μM) and THC 1 μg/mL) every day for 5 d. Cells were pelleted by centrifugation at 15,000×g for 5 minutes, washed with 1×PBS, and lysed in 250 μL lysis buffer. Lysates were immunoprecipitated with 10 μg of cdk9 or IgG antibodies overnight at 4° C., followed by a 2 h incubation with A/G beads at 4° C. IP complexes were washed with TNE50+0.1% NP40 buffer and kinase buffer as described in (Guendel et al., 2014, Novel Neuroprotective GSK-3β Inhibitor Restricts Tat-Mediated HIV-1 Replication. Journal of Virology, 88(2), 1189-1208), followed by 1 h incubation period at 37° C. with γ-^32P ATP and purified histone H1. The samples (50%) were loaded and run through SDS-PAGE on a 4-20% Tris-Glycine gel, followed by staining with Coomassie blue, destain with destain buffer (50% methanol and 10% acetic acid), and dried for 2 h. The dried gels were exposed to a PhosphorImager Cassette, followed by analysis via Molecular Dynamic's ImageQuant Software.
U1 monocytes were treated with CBD (10 μM) and Flavo (50 nM) for short periods (0, 2 and 6 hours) due to the fact that HIV-1 transcription activity is a rapid event that can be scored using chromatin immunoprecipitation (ChIP) assay for factor occupancy. Treated samples were lysed and incubated with IgG control and Pol II (serine 2/5) antibodies for ChIP, followed by qPCR analysis for TAR DNA. […] As expected, there was no change in amount of TAR DNA pulled down with PolII with any treatment compared to the untreated control at 0 hours samples (lanes 1-3).

The test system of test [1] is HIV-1 infected monocytes (U1). Put plainly: ZetaView nanoparticle tracking analysis of EVs released from HIV-1 infected U1 monocytes. The class given is cell-based. The note with it: 5 days; for EV diameter (mean, median, peak): 1, 5, 10 μM or μg/mL, FIG. 8B-D; for release of EVs (EV concentration) / size of the EV (mean size): 1, 5, 20, 50 μM; for release of EVs (EV concentration): FIG. 2A; for size of the EV (mean size): FIG. 2B. The protocol:
HIV-1 infected monocytes (U1) were treated with cannabidiol (“CBD”) (1, 5, 20, and 50 μM) or with tetrahydrocannabinol (“THC”) (1, 5, 20, and 50 μM) for 5 days. The supernatants from the treated cells were analyzed by Zeta View Nanoparticle Tracking analysis for changes in concentration. Student's t-test was used to determine significance (***=p<0.001, **=p<0.01, *=p<0.05).
HIV-1 infected monocytes (U1) were treated with cannabidiol (“CBD”) (1, 5, 20, and 50 μM) or with tetrahydrocannabinol (“THC”) (1, 5, 20, and 50 μM) for 5 days. The supernatants from the treated cells were analyzed by Zeta View Nanoparticle Tracking analysis for changes in mean size. Student's t-test was used to determine significance (***=p<0.001, **=p<0.01, *=p<0.05).
FIGS. 8A-8D are graphs showing Cannabis components lower EVs released from HIV-1 infected monocytes. HIV-1 infected U1 monocytic cells (1×10^6) were treated with a titration of CBD (1, 5, and 10 μM) and THC (1, 5, and 10 μg/mL) every day for 5 days. Cells were pelleted and supernatant was used for Zetaview NTA analysis to determine (A) EV concentration, (B) median size, (C) mean size, and (D) peak size. Each bar represents an average of three independent replicates. Student's t-test was used for statistical analysis, where *p-value≤0.05; **p-value≤0.01, ***p-value≤0.001.
HIV-1 infected monocytes (U1) were treated with a titration of CBD (1, 5, 20, and 50 μM) or a titration of THC (1, 5, 20, and 50 μM) for 5 days. Resulting supernatants from the treated cells were analyzed by Zeta View Nanoparticle Tracking analysis for changes in concentration (FIG. 2A) or mean size (FIG. 2B).
NTA was performed with the ZetaView Z-NTA (Particle Metrix) and its software (ZetaView 8.04.02). The machine was calibrated according to manufacturer's protocol. Following the measurement and removal of any outliers from the measured 11 positions, the mean size (diameter; nm) and the concentration of the sample (EV number) were analyzed by the associated ZetaView software. Measurement data from the ZetaView were used to calculate averages and standard deviations from technical triplicates using Microsoft Excel 2016.
Supernatants were harvested and analyzed using ZetaView NTA.
To verify that the observed decrease in EVs was not the result of modifications in packaging of various cargos into larger EVs, the mean diameter size (FIG. 8B), median diameter size (FIG. 8C), and peak diameter size (FIG. 8D) were also analyzed.

T1 sequence (P50750 whole entry): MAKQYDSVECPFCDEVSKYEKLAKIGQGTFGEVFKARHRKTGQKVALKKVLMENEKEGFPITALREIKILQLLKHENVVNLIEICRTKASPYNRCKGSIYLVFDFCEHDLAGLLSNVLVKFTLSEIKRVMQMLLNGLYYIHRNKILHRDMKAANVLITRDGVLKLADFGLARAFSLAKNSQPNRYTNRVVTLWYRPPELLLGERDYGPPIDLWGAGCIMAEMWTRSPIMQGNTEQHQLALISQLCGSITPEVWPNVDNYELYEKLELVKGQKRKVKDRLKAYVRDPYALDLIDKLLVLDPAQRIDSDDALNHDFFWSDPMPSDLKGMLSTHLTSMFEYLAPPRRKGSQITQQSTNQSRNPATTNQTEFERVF
T1 sequence (O60563 whole entry partner): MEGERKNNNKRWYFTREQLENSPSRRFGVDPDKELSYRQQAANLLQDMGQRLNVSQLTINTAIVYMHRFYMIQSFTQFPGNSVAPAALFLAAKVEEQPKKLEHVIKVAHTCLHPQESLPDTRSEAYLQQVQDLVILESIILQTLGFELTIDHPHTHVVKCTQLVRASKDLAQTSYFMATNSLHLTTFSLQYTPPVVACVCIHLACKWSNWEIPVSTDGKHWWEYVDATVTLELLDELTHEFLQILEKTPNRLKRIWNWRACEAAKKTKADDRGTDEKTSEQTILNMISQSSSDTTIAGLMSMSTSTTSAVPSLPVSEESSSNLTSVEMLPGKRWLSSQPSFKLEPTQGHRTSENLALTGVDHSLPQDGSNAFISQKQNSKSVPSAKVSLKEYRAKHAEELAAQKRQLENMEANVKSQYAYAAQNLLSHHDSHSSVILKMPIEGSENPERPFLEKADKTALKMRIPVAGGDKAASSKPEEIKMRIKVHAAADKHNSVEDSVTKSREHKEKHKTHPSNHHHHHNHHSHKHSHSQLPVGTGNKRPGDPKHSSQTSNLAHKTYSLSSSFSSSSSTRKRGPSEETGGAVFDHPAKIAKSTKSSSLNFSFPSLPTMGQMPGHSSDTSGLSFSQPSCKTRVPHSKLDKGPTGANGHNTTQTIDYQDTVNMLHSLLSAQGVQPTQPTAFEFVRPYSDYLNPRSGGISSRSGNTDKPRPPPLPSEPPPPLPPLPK

`C=C(C)[C@@H]1CCC(C)=C[C@H]1c1c(O)cc(CCCCC)cc1O` [CBD, 2-[1R-3-methyl-6R-(1-methylethenyl)-2-cyclohexen-1-yl]-5-pentyl-1,3-benzenediol]: the “cdk9/Cyclin Ti activity in vitro” value on cdk9/Cyclin Ti (FIG. 17) is “did not inhibit”. Besides, the “phosphorylation of Histone H1” value on cdk9/Cyclin Ti is on record as “lower phosphorylation of Histone H1”. The “decrease in EVs compared to untreated control” value (“decrease in EVs” below) in test [1] (1 μM, FIG. 8A lane 2) turned out to be 44%. Also, the “decrease in EVs” value in test [1] (5 μM, FIG. 8A lane 3) is given as 76%. Moreover, the “decrease in EVs” value in test [1] (10 μM, FIG. 8A lane 4) was 79%. In test [1], the “EV diameter (mean, median, peak)” value is reported as “little to no change in diameter”; the “release of EVs (EV concentration)” value is “significantly reduced the release of EVs”; the “size of the EV (mean size)” value is “without altering the size of the EV”.

For the molecule `CCCCCc1cc(O)c2c(c1)OC(C)(C)[C@@H]1CCC(C)=C[C@@H]21` [THC, Δ9-tetrahydrocannabinol], the “phosphorylation of Histone H1” value at cdk9/Cyclin Ti was “lower phosphorylation of Histone H1”. Also, in test [1], the “EV diameter (mean, median, peak)” value was “little to no change in diameter”; the “release of EVs (EV concentration)” value was “significantly reduced the release of EVs”; the “size of the EV (mean size)” value was “without altering the size of the EV”. Besides, the “number of EVs released” value in test [1] (1, 5, 10 μg/mL, FIG. 8A lanes 5-7, less drastic than CBD) was “significant reduction in the number of EVs”.
